Molecules are shown by their SMILES.

Data set [1] has as its system MX-1 (human breast carcinoma). In words: Cell cytotoxicity CellTiter-Glo, MX-1. The format is cell-based. As to conditions: MX1. How it is done: (§1) Cells were seeded in 96-well microplates and treated with compounds or cisplatin (as a positive control) at 9 increasing concentrations in technical triplicate. […] On day 1, 90 μL of various cell suspensions with the number of cells ranging from 5000-8000 cells/well were seeded into wells of a 96-well plate (Corning). The number of cells to be seeded was previously determined. • 2. All 96-wells plates with cells were placed in an incubator overnight at 37° C. with 5% CO2. • 3. On day 2, cells were observed under a microscope ensuring the cells treated with vehicle control were in good condition. • 4. A dilution series of the test compounds and cisplatin were prepared at 10× the final concentrations required. 10 μL/well of 10× compound solution was added to the corresponding plates. The final volume was 100 μL/well for all the plates. Final DMSO concentration was 0.1%. • 5. On day 5 (after 72 hours of incubation), 50 μL of CTG reagent was added to each well. • 6. Contents were mixed for 5 minutes on an orbital shaker to facilitate cell lysis. • 7. The plate was allowed to incubate at room temperature for 10 minutes to stabilize luminescent signals. […]

The subject of data set [2] is NCI-H1703 (human lung squamous cell carcinoma). As to the kind of experiment: Cell cytotoxicity CellTiter-Glo, NCI-H1703. The format is cell-based. How it is done: as §1
The nature of data set [3]: Caco-2 cell permeability assay. As to conditions: human, Caco-2, pH 7.4, basal to apical Papp, pH 7.4, 2.5 h. The format is in vitro ADME. Summed up: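 Caco-2 monolayers grown 10 days were dosed at 2 μM (1% DMSO) on the donor side in HBSS/10 mM HEPES pH 7.4, for both AB and BA directions, then incubated 2.5 h at 37 °C without shaking. Donor and acceptor samples were quantified by LC-MS/MS to give Papp. Wells that failed a Lucifer Yellow integrity check (>1% passage) were excluded.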
A general note: Caco-2 monolayers are a common model of the intestinal barrier.

For data set [4], the system named is RKO (human colon carcinoma). As to the kind of experiment: Cell cytotoxicity CellTiter-Glo, RKO. It is filed as cell-based. How it is done: as §1
Background: In ATP-based viability assays light output follows the ATP content of the culture.

Data set [5] deals with CA46 (human B cell lymphoma). As to the kind of experiment: Cell cytotoxicity CellTiter-Glo, CA46. The format is cell-based. How it is done: as §1
For data set [6], the system named is HT1080 (human fibrosarcoma). As to the kind of experiment: Cell cytotoxicity CellTiter-Glo, HT1080. The format is cell-based. As to conditions: HT-1080. The method, then:
as §1

The IC50 is the concentration that inhibits the measured activity by half. The low end stands for higher potency, the high end for lower potency. What is called Papp B→A is the apparent permeability from the basolateral to the apical side of a cell layer. As to `Cc1c(CCOc2cc(Cl)ccc2-c2ccc3ncc(CCN)n3c2)c(C(=O)N(C)C)nn1C` [Comparator Compound 1, 4-(2-{2-[3-(2-aminoethyl)imidazo[1,2-a]pyridin-6-yl]-5-chlorophenoxy}ethyl)-N,N,1,5-tetramethyl-1H-pyrazole-3-carboxamide, reference compound], the IC50 in data set [1] stood at 40 nM; in data set [2] it was 82 nM; in data set [4] it was 96 nM; in data set [5], 613 nM; in data set [6], 6.4 nM. The Papp B→A at 2.5 h, 2 μM in data set [3] is 9.1 ×10⁻⁶ cm/s.

Source of the values: patent US12599676B2, “Cytotoxic imidazo[1,2-A]pyridine compounds and their use in therapy” (MyricX Pharma Limited, priority 2022, dated 2026).
